Read-outs that look alike come from different tables or passages of the source.
Biological target: MLK3 (Homo sapiens (Human), UniProt Q16584)
Assay: Radiometric filter plate MLK3 assay
Type: biochemical
Details: read-out: MK3 IC50
Description: After a twenty minute incubation, the reactions were washed through filter plates and read on a scintillation counter. Results are shown in Table 9 below, in which +++ indicates ≤0.1 μM, ++ indicates >0.1 μM and ≤1 μM, and + indicates >1 μM.

[1] = 2 μM cold ATP (Km), 1 μM inactive MKK7b, twenty minute incubation

MLK3, sequence (Q16584 whole entry): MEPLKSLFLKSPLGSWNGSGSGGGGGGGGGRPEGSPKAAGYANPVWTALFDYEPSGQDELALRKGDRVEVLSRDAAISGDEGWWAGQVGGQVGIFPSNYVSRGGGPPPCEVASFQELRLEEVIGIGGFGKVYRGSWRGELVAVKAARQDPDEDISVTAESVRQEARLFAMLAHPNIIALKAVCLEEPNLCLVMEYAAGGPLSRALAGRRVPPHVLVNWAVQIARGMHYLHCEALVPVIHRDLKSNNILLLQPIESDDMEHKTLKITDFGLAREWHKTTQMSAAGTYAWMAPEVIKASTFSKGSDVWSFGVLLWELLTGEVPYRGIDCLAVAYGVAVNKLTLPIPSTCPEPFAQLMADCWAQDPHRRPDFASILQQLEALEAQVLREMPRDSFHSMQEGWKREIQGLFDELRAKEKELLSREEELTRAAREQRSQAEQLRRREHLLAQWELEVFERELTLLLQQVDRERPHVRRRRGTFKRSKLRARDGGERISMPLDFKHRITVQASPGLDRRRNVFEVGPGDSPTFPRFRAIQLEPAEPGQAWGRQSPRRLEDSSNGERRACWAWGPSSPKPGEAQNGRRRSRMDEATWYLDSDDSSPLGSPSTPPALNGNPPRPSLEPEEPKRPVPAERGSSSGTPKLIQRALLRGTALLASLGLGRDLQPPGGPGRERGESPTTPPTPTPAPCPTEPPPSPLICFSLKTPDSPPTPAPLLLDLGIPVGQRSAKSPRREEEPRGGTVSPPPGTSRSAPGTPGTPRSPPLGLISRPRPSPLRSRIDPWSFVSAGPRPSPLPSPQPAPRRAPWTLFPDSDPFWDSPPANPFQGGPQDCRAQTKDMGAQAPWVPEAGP

| IC50 [1] | IC50 | Structure (SMILES) |
| --- | --- | --- |
| > 1000 nM | – | O=c1[nH]c2ncc(-c3ccc(N4CCOCC4)cc3)nc2n1-c1ccc2scnc2c1 [Example 100, 1-(benzo[d]thiazol-5-yl)-6-(4-morpholinophenyl)-1H-imidazo[4,5-b]pyrazin-2(3H)-one] |
| > 1000 nM | – | COc1cc(-c2cnc3[nH]c(=O)n(C4CCc5ccccc54)c3n2)cc(OC)c1OC (stereo not shown) [Example 101, 1-(2,3-dihydro-1H-inden-1-yl)-6-(3,4,5-trimethoxyphenyl)-1H-imidazo[4,5-b]pyrazin-2(3H)-one] |
| < 100 nM | – | COc1cc(-c2cnc3[nH]c(=O)n(-c4ccc5[nH]cnc5c4)c3n2)cc(OC)c1OC [Example 102, 1-(1H-benzo[d]imidazol-5-yl)-6-(3,4,5-trimethoxyphenyl)-1H-imidazo[4,5-b]pyrazin-2(3H)-one] |
| > 1000 nM | – | COc1cc(-c2cnc3[nH]c(=O)n(-c4ccc(N5CCOCC5)nc4)c3n2)cc(OC)c1OC [Example 109, 1-(6-morpholinopyridin-3-yl)-6-(3,4,5-trimethoxyphenyl)-1H-imidazo[4,5-b]pyrazin-2(3H)-one] |
| < 100 nM | – | COc1cc(-c2cnc3[nH]c(=O)n(C4Cc5ccccc5C4)c3n2)cc(OC)c1OC [Example 110, 1-(2,3-dihydro-1H-inden-2-yl)-6-(3,4,5-trimethoxyphenyl)-1H-imidazo[4,5-b]pyrazin-2(3H)-one] |
| < 100 nM | – | COc1cc(-c2cnc3[nH]c(=O)n(-c4cnc5[nH]ccc5c4)c3n2)cc(OC)c1OC [Example 112, 1-(1H-pyrrolo[2,3-b]pyridin-5-yl)-6-(3,4,5-trimethoxyphenyl)-1H-imidazo[4,5-b]pyrazin-2(3H)-one] |
| < 100 nM | – | COc1cc(-c2cnc3[nH]c(=O)n(-c4ccc5cc[nH]c5c4)c3n2)cc(OC)c1OC [Example 113, 1-(1H-indol-6-yl)-6-(3,4,5-trimethoxyphenyl)-1H-imidazo[4,5-b]pyrazin-2(3H)-one] |
| > 1000 nM | – | Nc1ccc(-c2cnc3[nH]c(=O)n(C4CCCC4)c3n2)cn1 [Example 117, 6-(6-aminopyridin-3-yl)-1-cyclopentyl-1H-imidazo[4,5-b]pyrazin-2(3H)-one] |
| – | 100 to 1000 nM | COc1cc(-c2cnc3[nH]c(=O)n(C4CCCC4)c3n2)ccc1N [Example 118, 6-(4-amino-3-methoxyphenyl)-1-cyclopentyl-1H-imidazo[4,5-b]pyrazin-2(3H)-one] |
| > 1000 nM | – | COc1cc(-c2nc3c(nc2Cl)[nH]c(=O)n3CC2CC2)cc(OC)c1OC [Example 119, 5-chloro-1-(cyclopropylmethyl)-6-(3,4,5-trimethoxyphenyl)-1H-imidazo[4,5-b]pyrazin-2(3H)-one] |
| > 1000 nM | – | COc1cc(-c2cnc3[nH]c(=O)n(CC4CC4)c3c2)cc(OC)c1OC [Example 125, 1-(cyclopropylmethyl)-6-(3,4,5-trimethoxyphenyl)-1H-imidazo[4,5-b]pyridin-2(3H)-one] |
| > 1000 nM | – | COc1cc(-c2cnc3ncn(-c4ccc5[nH]ccc5c4)c3n2)cc(OC)c1OC [Example 126, 1-(1H-indol-5-yl)-6-(3,4,5-trimethoxyphenyl)-1H-imidazo[4,5-b]pyrazine] |
| > 1000 nM | – | COc1cc(-c2cnc3[nH]c(=S)n(CC4CC4)c3n2)cc(OC)c1OC [Example 127, 1-(cyclopropylmethyl)-6-(3,4,5-trimethoxyphenyl)-1H-imidazo[4,5-b]pyrazine-2(3H)-thione] |
| – | > 1000 nM | COc1cc(-c2cnc3c(c2)/C(=C\c2ccncc2)C(=O)N3)cc(OC)c1OC [Example 129, (E)- and (Z)-3-pyridin-4-ylmethylene-5-(3,4,5-trimethoxy-phenyl)-1,3-dihydro-pyrrolo[2,3-b]pyridin-2-one] |
| > 1000 nM | – | COc1cc(-c2cnc3c(c2)C(=Cc2ccccc2)C(=O)N3)cc(OC)c1OC [Example 130, 3-benzylidene-5-(3,4,5-trimethoxy-phenyl)-1,3-dihydro-pyrrolo[2,3-b]pyridin-2-one] |
| > 1000 nM | – | COc1cc(-c2cnc3c(c2)C(=Cc2cccc(C(N)=O)c2)C(=O)N3)cc(OC)c1OC [Example 132, 3-[2-oxo-5-(3,4,5-trimethoxy-phenyl)-1,2-dihydro-pyrrolo[2,3-b]pyridin-3-ylidenemethyl]-benzamide] |
| > 1000 nM | – | COc1cc(-c2cnc3c(c2)C(=Cc2ccc(C#N)cc2)C(=O)N3)cc(OC)c1OC [Example 133, 4-[2-oxo-5-(3,4,5-trimethoxy-phenyl)-1,2-dihydro-pyrrolo[2,3-b]pyridin-3-ylidenemethyl]-benzonitrile] |
| > 1000 nM | – | COc1cc(-c2cnc3c(c2)C(=Cc2cccc(C#N)c2)C(=O)N3)cc(OC)c1OC [Example 134, 3-[2-oxo-5-(3,4,5-trimethoxy-phenyl)-1,2-dihydro-pyrrolo[2,3-b]pyridin-3-ylidenemethyl]-benzonitrile] |
| > 1000 nM | – | COc1cc(-c2cnc3c(c2)C(Cc2cccnc2)C(=O)N3)cc(OC)c1OC (stereo not shown) [Example 135, 3-pyridin-3-ylmethyl-5-(3,4,5-trimethoxy-phenyl)-1,3-dihydro-pyrrolo[2,3-b]pyridin-2-one] |
| > 1000 nM | – | COc1cc(-c2cnc3c(c2)C(Cc2ccncc2)C(=O)N3)cc(OC)c1OC (stereo not shown) [Example 136, 3-pyridin-4-ylmethyl-5-(3,4,5-trimethoxy-phenyl)-1,3-dihydro-pyrrolo[2,3-b]pyridin-2-one] |
| > 1000 nM | – | COc1cc(-c2cnc3c(c2)C(Cc2ccccc2)C(=O)N3)cc(OC)c1OC (stereo not shown) [Example 137, 3-benzyl-5-(3,4,5-trimethoxy-phenyl)-1,3-dihydro-pyrrolo[2,3-b]pyridin-2-one] |
| > 1000 nM | – | COc1cc(-c2cnc3c(c2)C(Cc2ccc(C(N)=O)cc2)C(=O)N3)cc(OC)c1OC (stereo not shown) [Example 138, 4-[2-oxo-5-(3,4,5-trimethoxy-phenyl)-2,3-dihydro-1H-pyrrolo[2,3-b]pyridin-3-ylmethyl]-benzamide] |
| > 1000 nM | – | CC(=O)N1CCN(Cc2ccc(-c3cnc4[nH]cc(-c5ccc6[nH]ccc6c5)c4c3)cc2)CC1 [Example 140, 1-(4-{4-[3-(1H-indol-5-yl)-1H-pyrrolo[2,3-b]pyridin-5-yl]-benzyl}-piperazin-1-yl)-ethanone] |
| < 100 nM | – | CN1CCN(Cc2ccc(-c3cnc4[nH]cc(-c5ccc6[nH]ccc6c5)c4c3)cc2)CC1=O [Example 141, 4-{4-[3-(1H-indol-5-yl)-1H-pyrrolo[2,3-b]pyridin-5-yl]-benzyl}-1-methyl-piperazin-2-one] |
| < 100 nM | – | O=C1CN(Cc2ccc(-c3cnc4[nH]cc(-c5ccc6[nH]ccc6c5)c4c3)cc2)CCN1 [Example 142, 4-{4-[3-(1H-indol-5-yl)-1H-pyrrolo[2,3-b]pyridin-5-yl]-benzyl}-piperazin-2-one] |
| < 100 nM | – | CN1CCN(Cc2cccc(-c3cnc4[nH]cc(-c5ccc6[nH]ccc6c5)c4c3)c2)CC1=O [Example 143, 4-{3-[3-(1H-indol-5-yl)-1H-pyrrolo[2,3-b]pyridin-5-yl]-benzyl}-1-methyl-piperazin-2-one] |
| < 100 nM | – | CC(C)(C)OC(=O)N1CCN(Cc2ccc(-c3cnc4[nH]cc(-c5ccc6[nH]ccc6c5)c4c3)cc2)CC1 [Example 144, 4-{4-[3-(1H-indol-5-yl)-1H-pyrrolo[2,3-b]pyridin-5-yl]-benzyl}-piperazine-1-carboxylic acid tert-butyl ester] |

| Structure (SMILES) | IC50 [1] | IC50 |
| --- | --- | --- |
| COc1cc(-c2cnc3c(c2)C(CC2CC2)C(=O)N3)cc(OC)c1OC (stereo not shown) [Example 123, 3-(cyclopropylmethyl)-5-(3,4,5-trimethoxyphenyl)-1H-pyrrolo[2,3-b]pyridin-2(3H)-one] | 100 to 1000 nM | – |

Source: patent US10485800B2, “Mixed lineage kinase inhibitors for HIV/AIDS therapies” (UNIVERSITY OF ROCHESTER, priority 2012, dated 2019)
